Reference: patent publication US20250206732A1, “COMPOUNDS AND METHODS FOR THE TARGETED DEGRADATION OF KRAS” (Arvinas Operations, Inc., priority 2022, published 2025)

Biological target: T1, AsPC-1 HiBiT-KRASG12D (Homo sapiens, UniProt P01116, G12D)
T1 construct: insert the HiBiT tag onto the N-terminus of one or more of the endogenous KRAS alleles; endogenous in cells; host or cells: AsPC-1 (ATCC CRL-1682), CRISPR-Cas9 knock-in clone, one tagged allele
Experiment: HiBiT degradation assay (G12D), AsPC-1 HiBiT-KRASG12D cells
Assay type: cell-based
Details: 24 hours treatment; for Dmax: ASPC1, AsPC-1 HiBiT-KRASG12D cells, maximum degradation observed; for DC50: AsPC-1 HiBiT-KRASG12D cells, HiBiT luminescence
Procedure, shortened: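 HiBiT-KRAS abundance was read as Nano-Glo HiBiT lytic luminescence (45 min, room temperature) after a PBS wash. Before that, a 4 h alamar blue fluorescence read, normalized to DMSO, monitored viability. Treatment lasted 24 hours at 37 °C, in triplicate, using AsPC-1 cells with endogenous N-terminally HiBiT-tagged KRAS G12D.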

T1 sequence (P01116 1-188 isoform P01116-2 G12D): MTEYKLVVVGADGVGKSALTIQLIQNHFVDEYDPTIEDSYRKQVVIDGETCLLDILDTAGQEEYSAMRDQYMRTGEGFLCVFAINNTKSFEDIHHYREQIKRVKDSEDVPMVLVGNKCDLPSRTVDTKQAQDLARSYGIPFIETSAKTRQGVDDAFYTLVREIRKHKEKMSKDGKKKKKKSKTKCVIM

Row | Structure (SMILES) | Dmax [%] | DC50 [nM]
1 | CCc1cccc2cc(O)cc(-c3ncc4c(N5CC6CCC(C5)N6)nc(OC[C@]56CCCN5[C@H](COC(=O)N5CCN(c7cc([C@H](C(=O)N8C[C@H](O)C[C@H]8C(=O)N[C@@H](C)c8ccc(-c9scnc9C)cc8)C(C)C)on7)CC5)CC6)nc4c3F)c12 [Compound 105, [(3S,7aR)-7a-{[(4-{3,8-diazabicyclo[3.2.1]octan-3-yl}-7-(8-ethyl-3-hydroxynaphthalen-1-yl)-8-fluoropyrido[4,3-d]pyrimidin-2-yl)oxy]methyl}-hexahydro-1H-pyrrolizin-3-yl]methyl 4-{5-[(2R)-1-[(2S,4R)-4-hydroxy-2-{[(1S)-1-[4-(4-methyl-1,3-thiazol-5-yl)phenyl]ethyl]carbamoyl}pyrrolidin-1-yl]-3-methyl-1-oxobutan-2-yl]-1,2-oxazol-3-yl}piperazine-1-carboxylate] | 80 to 100 | < 600
2 | CCc1cccc2cccc(-c3ncc4c(N5CC6CCC(C5)N6)nc(OC[C@]56CCCN5[C@H](COc5cc([C@H](C(=O)N7C[C@H](O)C[C@H]7C(=O)N[C@@H](C)c7ccc(-c8scnc8C)cc7)C(C)C)on5)CC6)nc4c3F)c12 [Compound 309, (2S,4R)-1-[(2R)-2-[3-[[(3S,8R)-8-[[4-(3,8-diazabicyclo[3.2.1]octan-3-yl)-7-(8-ethyl-1-naphthyl)-8-fluoro-pyrido[4,3-d]pyrimidin-2-yl]oxymethyl]-1,2,3,5,6,7-hexahydropyrrolizin-3-yl]methoxy]isoxazol-5-yl]-3-methyl-butanoyl]-4-hydroxy-N-[(1S)-1-[4-(4-methylthiazol-5-yl)phenyl]ethyl]pyrrolidine-2-carboxamide] | < 20 | < 600
3 | C#Cc1c(F)ccc2cc(O)cc(-c3ncc4c(N5CC6CCC(C5)N6)nc(OC[C@@]56CCCN5[C@H](COc5cc([C@@H](C(=O)N7C[C@H](O)C[C@H]7C(=O)N[C@@H](C)c7ccc(-c8scnc8C)cc7)C(C)C)on5)CC6)nc4c3F)c12 [Compound 315, (2S,4R)-1-[(2S)-2-[3-[[(3S,8S)-8-[[4-(3,8-diazabicyclo[3.2.1]octan-3-yl)-7-(8-ethynyl-7-fluoro-3-hydroxy-1-naphthyl)-8-fluoro-pyrido[4,3-d]pyrimidin-2-yl]oxymethyl]-1,2,3,5,6,7-hexahydropyrrolizin-3-yl]methoxy]isoxazol-5-yl]-3-methyl-butanoyl]-4-hydroxy-N-[(1S)-1-[4-(4-methylthiazol-5-yl)phenyl]ethyl]pyrrolidine-2-carboxamide] |  | > 3000
4 | CCc1cccc2cc(O)cc(-c3ncc4c(N5CC6CCC(C5)N6)nc(OC[C@@H]5CC[C@@H](COC(=O)N6CCN(c7cc([C@@H](C(=O)N8C[C@H](O)C[C@H]8C(=O)N[C@@H](C)c8ccc(-c9scnc9C)cc8)C(C)C)on7)[C@H](C)C6)N5C)nc4c3F)c12 [Compound 298, [(2S,5S)-5-[[4-(3,8-diazabicyclo[3.2.1]octan-3-yl)-7-(8-ethyl-3-hydroxy-1-naphthyl)-8-fluoro-pyrido[4,3-d]pyrimidin-2-yl]oxymethyl]-1-methyl-pyrrolidin-2-yl]methyl (3R)-4-[5-[(1S)-1-[(2S,4R)-4-hydroxy-2-[[(1S)-1-[4-(4-methylthiazol-5-yl)phenyl]ethyl]carbamoyl]pyrrolidine-1-carbonyl]-2-methyl-propyl]isoxazol-3-yl]-3-methyl-piperazine-1-carboxylate] |  | > 3000
5 | CCc1cccc2cc(O)cc(-c3ncc4c(N5CCCCCC5)nc(OC[C@]56CCCN5[C@H](COC(=O)N5CC7(C5)CN(c5cc([C@@H](C(=O)N8C[C@H](O)C[C@H]8C(=O)N[C@@H](C)c8ccc(-c9scnc9C)cc8)C(C)C)on5)C7)CC6)nc4c3F)c12 [Compound 284, [(3S,8R)-8-[[4-(azepan-1-yl)-7-(8-ethyl-3-hydroxy-1-naphthyl)-8-fluoro-pyrido[4,3-d]pyrimidin-2-yl]oxymethyl]-1,2,3,5,6,7-hexahydropyrrolizin-3-yl]methyl 6-[5-[(1S)-1-[(2S,4R)-4-hydroxy-2-[[(1S)-1-[4-(4-methylthiazol-5-yl)phenyl]ethyl]carbamoyl]pyrrolidine-1-carbonyl]-2-methyl-propyl]isoxazol-3-yl]-2,6-diazaspiro[3.3]heptane-2-carboxylate] |  | > 3000
6 | CCc1cccc2cc(O)cc(-c3ncc4c(N5CC6CCC(C5)N6)nc(OC[C@@]56CCCN5[C@H](COC(=O)N(C)Cc5cc([C@@H](C(=O)N7C[C@H](O)C[C@H]7C(=O)N[C@@H](C)c7ccc(-c8scnc8C)cc7)C(C)C)on5)CC6)nc4c3F)c12 [Compound 91, [(3S,7aS)-7a-{[(4-{3,8-diazabicyclo[3.2.1]octan-3-yl}-7-(8-ethyl-3-hydroxynaphthalen-1-yl)-8-fluoropyrido[4,3-d]pyrimidin-2-yl)oxy]methyl}-hexahydro-1H-pyrrolizin-3-yl]methyl N-({5-[(2S)-1-[(2S,4R)-4-hydroxy-2-{[(1S)-1-[4-(4-methyl-1,3-thiazol-5-yl)phenyl]ethyl]carbamoyl}pyrrolidin-1-yl]-3-methyl-1-oxobutan-2-yl]-1,2-oxazol-3-yl}methyl)-N-methylcarbamate] | 20 to 60 | 1000 to 3000
7 | CCc1cccc2cc(O)cc(-c3ncc4c(N5CC6CCC(C5)N6)nc(OC[C@@]56CCCN5[C@H](COC(=O)N5CCN(c7cc([C@@H](C(=O)N8C[C@H](O)C[C@H]8C(=O)N[C@@H](C)c8ccc(-c9scnc9C)cc8)C(C)C)on7)[C@H](C)C5)CC6)nc4c3F)c12 [Compound 341, [(3S,8S)-8-[[4-(3,8-diazabicyclo[3.2.1]octan-3-yl)-7-(8-ethyl-3-hydroxy-1-naphthyl)-8-fluoro-pyrido[4,3-d]pyrimidin-2-yl]oxymethyl]-1,2,3,5,6,7-hexahydropyrrolizin-3-yl]methyl (3R)-4-[5-[(1S)-1-[(2S,4R)-4-hydroxy-2-[[(1S)-1-[4-(4-methylthiazol-5-yl)phenyl]ethyl]carbamoyl]pyrrolidine-1-carbonyl]-isobutyl]isoxazol-3-yl]-3-methyl-piperazine-1-carboxylate] |  | > 3000
8 | Cc1ncsc1-c1ccc([C@H](C)NC(=O)[C@@H]2C[C@@H](O)CN2C(=O)[C@@H](c2cc(N3CCN(C(=O)OC[C@@H]4CC[C@@]5(COc6nc(N7CC8CCC(C7)N8)c7cnc(-c8cc(O)cc9cccc(Cl)c89)c(F)c7n6)CCCN45)CC3)no2)C(C)C)cc1 (relative stereo) [Compound 268, ((3S,7aR)-7a-(((4-((1R,5S)-3,8-diazabicyclo[3.2.1]octan-3-yl)-7-(8-chloro-3-hydroxynaphthalen-1-yl)-8-fluoropyrido[4,3-d]pyrimidin-2-yl)oxy)methyl)hexahydro-1H-pyrrolizin-3-yl)methyl 4-(5-((R)-1-((2S,4R)-4-hydroxy-2-(((S)-1-(4-(4-methylthiazol-5-yl)phenyl)ethyl)carbamoyl)pyrrolidin-1-yl)-3-methyl-1-oxobutan-2-yl)isoxazol-3-yl) piperazine-1-carboxylate] | 80 to 100 | < 600
9 | CCc1cccc2cc(O)cc(-c3ncc4c(N5CC6CCC(C5)N6)nc(OCCN5CCC(F)(CN6CCN(c7cc([C@H](C(=O)N8C[C@H](O)C[C@H]8C(=O)N[C@@H](C)c8ccc(-c9scnc9C)cc8)C(C)C)on7)CC6)CC5)nc4c3F)c12 [Compound 262] | 80 to 100 | < 600
10 | CCc1cccc2cc(O)cc(-c3ncc4c(N5CCCCCC5)nc(OC[C@]56CCCN5[C@H](COc5cc([C@H](C(=O)N7C[C@H](O)C[C@H]7C(=O)N[C@@H](C)c7ccc(-c8scnc8C)cc7)C(C)C)on5)CC6)nc4c3F)c12 [Compound 208, (2S,4R)-1-[(2R)-2-(3-{[(3S,7aR)-7a-({[4-(azepan-1-yl)-7-(8-ethyl-3-hydroxynaphthalen-1-yl)-8-fluoropyrido[4,3-d]pyrimidin-2-yl]oxy}methyl)-hexahydro-1H-pyrrolizin-3-yl]methoxy}-1,2-oxazol-5-yl)-3-methylbutanoyl]-4-hydroxy-N-[(1S)-1-[4-(4-methyl-1,3-thiazol-5-yl)phenyl]ethyl]pyrrolidine-2-carboxamide] | 80 to 100 | < 600
11 | CCc1cccc2cc(O)cc(-c3ncc4c(N5CC6CCC(C5)N6)nc(N5CC(N6CCC(CC7CN(c8cc([C@H](C(=O)N9C[C@H](O)C[C@H]9C(=O)N[C@@H](C)c9ccc(-c%10scnc%10C)cc9)C(C)C)on8)C7)CC6)C5)nc4c3F)c12 [Compound 165] | 20 to 60 | < 600
12 | CCc1cccc2cc(O)cc(-c3ncc4c(N5CC6CCC(C5)N6)nc(OC[C@H]5CN(CC6CN(c7cc([C@H](C(=O)N8C[C@H](O)C[C@H]8C(=O)N[C@@H](C)c8ccc(-c9scnc9C)cc8)C(C)C)on7)C6)CCN5C)nc4c3F)c12 [Compound 162, (2S,4R)-1-[(2R)-2-[3-(3-{[(3R)-3-{[(4-{3,8-diazabicyclo[3.2.1]octan-3-yl}-7-(8-ethyl-3-hydroxynaphthalen-1-yl)-8-fluoropyrido[4,3-d]pyrimidin-2-yl)oxy]methyl}-4-methylpiperazin-1-yl]methyl}azetidin-1-yl)-1,2-oxazol-5-yl]-3-methylbutanoyl]-4-hydroxy-N-[(1S)-1-[4-(4-methyl-1,3-thiazol-5-yl)phenyl]ethyl]pyrrolidine-2-carboxamide] | 20 to 60 | < 600
